Like-named read-outs stand apart in the source and are kept apart here.
What was measured:
Type in all cases: cell-based, Hepatitis C virus
[1] = test system: HCV genotype 1a H77 strain subgenomic luciferase replicon; test: HCV replicon assay, genotype 1a
Method: (§1) The HCV luciferase replicon assay measures the ability of a test compound to inhibit HCV replication in cell culture after 3 days of treatment in a human hepatoma cell line (Huh-7) bearing an HCV replicon containing a luciferase-neomycin phosphotransferase fusion gene. The inhibition of HCV replication was measured by quantification of luciferase protein expression. Briefly, Huh-7 cells containing either the HCV genotype 1a H77 strain or genotype 1b Con1 strain subgenomic luciferase replicon (H1a-luc or Zluc, respectively) were grown in DMEM containing glucose, L-glutamine and sodium pyruvate, 10% fetal bovine serum (FBS), 100 IU/mL penicillin, 100 μg/mL streptomycin, 2 mM GlutaMAX, non-essential amino acids and 0.25 (H1a-luc) or 0.5 (Zluc) mg/mL G418. GlutaMAX was obtained from Invitrogen, Corp.; all other media reagents were obtained from Mediatech, Inc. For dose-response testing, the cells were seeded in 96-well plates at 1×10^4 (H1a-luc) or 7.5×10^3 (Zluc) cells/well in a volume of 50 μL, and incubated at 37° C./5% CO2. Three hours after plating, 50 μL of ten 5-fold serial dilutions of compound were added, and cell cultures were incubated at 37° C./5% CO2 for 72 hours. In all cases, Huh-7 cells lacking the HCV replicon served as negative control. To assess luciferase expression, the media/compound was removed from the plates and ONE-glo Luciferase assay reagent (Promega) was added to each well. The assay plates were shaken for 3 minutes at room temperature and luciferase activity for each well was measured with a 1 sec read time on the Victor^3V multilabel counter using a 700 nm cut-off filter (Perkin Elmer). EC50 values were calculated from dose response curves from the resulting best-fit equations determined by Microsoft Excel and XLfit 4.1 software.

[2] = test system: HCV 1aY93H mutant replicon; test: HCV replicon assay, genotype 1a Y93H mutant
Method: General procedure: The luciferase replicon transient transfection assay measures the ability of a test compound to inhibit the replication of a transiently-transfected HCV luciferase-bearing wild-type or mutant replicon in cured human hepatoma cells (Huh7.5). The inhibition of HCV replication was measured by quantification of luciferase protein expression. This assay has been validated using a panel of genotype 1a and 1b replicons bearing mutations known to be associated with resistance to BMS-790052. Briefly, subconfluent Huh7.5 cells were electroporated with 10 μg of wild-type or mutant luciferase-bearing HCV replicon RNA. The cells were then seeded in 96-well opaque white plates at 3×10^4 cells/well in 150 μL/well and incubated for 4 hrs at 37° C./5% CO2. Ten 1:5 serial dilutions of each test compound were made in media (DMEM containing glucose, L-glutamine and sodium pyruvate, 10% fetal bovine serum, 100 IU/mL penicillin, 100 μg/mL streptomycin, 2 mM GlutaMAX, and 1×MEM non-essential amino acids (Mediatech, Inc. and Invitrogen Corp.)) at concentrations that were 4× higher than the final concentrations to be tested and 50 μL/well was added to the transfected cells. Untreated, mock-transfected cells served as a negative control of luciferase expression. The plates were incubated at 37° C./5% CO2 for 4 days whereupon the media was removed and 50 μL of ONE-glo luciferase substrate (Promega) was added to each well. The plates were agitated on a rotating platform at room temperature for 3 min and read in a Victor^3V microplate reader (Perkin-Elmer) using a 700 nm cut-off filter with a 1 sec read time. EC50 values were calculated from dose response curves from the resulting best-fit equations determined by Microsoft Excel and XLfit 4.1 software.

[3] = test system: HCV genotype 1b Con1 strain subgenomic luciferase replicon; test: HCV replicon assay, genotype 1b
Method: as §1

[4] = test system: HCV genotype 3a NS5A within the 1b-replicon; test: HCV replicon assay, genotype 3a (NS5A intergenotypic stable cell line)
From the text: The nucleotide sequences of the NS5A region of genotype 2a (GenBank Accession # AB047639), genotype 3a (GenBank Accession # D17763), and genotype 4a (GenBank Accession # DQ418788) were synthesized by an outside vendor. The NS5A region of each of these genotypes included the first 11 amino acids of the protease recognition sequence of genotype 1b, as well as the last 10 amino acids of genotype 1b. The NS5A gene cassettes were excised with site specific restriction endonucleases and ligated into a ZS11-luciferase genotype 1b backbone (backbone contains the genotype 1b NS3 protease, NS4a, NS4b, and NS5b coding regions) with similarly cut restriction enzyme sites. Thus, the newly constructed plasmid contains a genotype 2a-, 3a- or 4a-specific NS5A gene within the 1b-replicon.
These new intergenotypic plasmids were used to establish stable cell lines. RNA was generated from the NS5A intergenotypic plasmids and used in conjunction with a lipofectin reagent to transfect a cured Huh7 cell line. Transfected cells were selected for with G418. After selection has occurred the stable cell lines were propagated, tested for luciferase activity, and RT-PCR with genotype specific primers (either 1a, 2a, 3a, or 4a). Stable cell lines containing the intergenotypic replicon were then fully sequenced and analyzed for proper expression of NS3, NS5A and NS5B proteins.
Drug titration analysis was performed using the luciferase replicon assay described herein.
as §1

[5] = test system: HCV 2b; test: HCV replicon assay, genotype 2b
[6] = Hepatitis C virus, read-out: 1a IC50 (nM), HCV genotype 1a
[7] = Hepatitis C virus, read-out: 1aY93H IC50 (nM), HCV genotype 1a, Y93H mutant
[8] = Hepatitis C virus, read-out: 3a IC50 (nM), HCV genotype 3a
[9] = Hepatitis C virus, read-out: 2b IC50 (nM), HCV genotype 2b
[10] = read-out: 1a IC50, HCV genotype 1a
[11] = read-out: 2b IC50, HCV genotype 2b

| Compound | IC50 [1, 6] | IC50 [2, 7] | IC50 ([3]; Hepatitis C virus) | IC50 [4, 8] | IC50 [5, 9] | IC50 [1, 10] | IC50 ([2]; read-out: 1aY93H IC50, HCV genotype 1a, Y93H mutant) | IC50 [3] | IC50 ([4]; read-out: 3a IC50, HCV genotype 3a) | IC50 [5, 11] |
| --- | --- | --- | --- | --- | --- | --- | --- | --- | --- | --- |
| COC(=O)N[C@H](C(=O)N1CCC[C@H]1c1ncc(-c2ccc3c(ccc4oc5cc(-c6cnc([C@@H]7CCCN7C(=O)[C@@H](NC(=O)OC)C(C)C)[nH]6)ccc5c(=O)c43)c2)[nH]1)C(C)C [Compound 33, methyl [(1S)-1-({(2S)-2-[5-(9-{2-[(2S)-1-{(2S)-2-[(methoxycarbonyl)amino]-3-methylbutanoyl}pyrrolidin-2-yl]-1H-imidazol-5-yl}-12-oxo-12H-benzo[a]xanthen-3-yl)-1H-imidazol-2-yl]pyrrolidin-1-yl}carbonyl)-2-methylpropyl]carbamate] | 0.003 nM | 18.4 nM | 0.00333 nM | ≥ 1 nM | 14.1 nM | – | – | – | – | – |
| CCC1(CC)c2ccc(-c3cnc([C@@H]4CCCN4C(=O)[C@H](NC(=O)OC)C4CCOCC4)[nH]3)cc2Oc2cc3ccc(-c4cnc([C@@H]5CCCN5C(=O)[C@@H](NC(=O)OC)C5CCOCC5)[nH]4)cc3cc21 [Compound 17, methyl [(1R)-2-[(2S)-2-{5-[12,12-diethyl-9-(2-{(2S)-1-[(2S)-2-[(methoxycarbonyl)amino]-2-(tetrahydro-2H-pyran-4-yl)acetyl]pyrrolidin-2-yl}-1H-imidazol-5-yl)-12H-benzo[b]xanthen-3-yl]-1H-imidazol-2-yl}pyrrolidin-1-yl]-2-oxo-1-(tetrahydro-2H-pyran-4-yl)ethyl]carbamate] | 0.0034 nM | 0.046 nM | 0.0305 nM | 0.055 nM | 0.028 nM | – | – | – | – | – |
| COC(=O)N[C@H](C(=O)N1CCC[C@H]1c1ncc(-c2ccc3c(c2)Oc2ccc4cc(-c5cnc([C@@H]6CCCN6C(=O)[C@@H](NC(=O)OC)C6CCOCC6)[nH]5)ccc4c2C3(C)C)[nH]1)C1CCOCC1 [Compound 13, dimethyl [(12,12-dimethyl-12H-benzo[a]xanthene-3,9-diyl)bis{1H-imidazole-5,2-diyl(2S)pyrrolidine-2,1-diyl[(1S)-2-oxo-1-(tetrahydro-2H-pyran-4-yl)ethane-2,1-diyl]}]biscarbamate] | 0.0023 nM | 0.682 nM | 0.004 nM | 0.084 nM | 0.254 nM | – | – | – | – | – |
| COC(=O)N[C@H](C(=O)N1CCC[C@H]1c1ncc(-c2ccc3c(c2)Oc2ccc4cc(-c5cnc([C@@H]6CCCN6C(=O)[C@@H](NC(=O)OC)C(C)C)[nH]5)ccc4c2C3C)[nH]1)C(C)C (single isomer, unassigned) [Compound 3] | – | – | – | – | – | 0.0022 nM | 7.15 nM | 0.0016 nM | 0.721 nM | 1.95 nM |
| COC(=O)N[C@H](C(=O)N1CCC[C@H]1c1ncc(-c2ccc3c(F)c4oc5ccc(-c6cnc([C@@H]7CCCN7C(=O)[C@@H](NC(=O)OC)C(C)C)[nH]6)cc5c(=O)c4cc3c2)[nH]1)C(C)C [Compound 26, methyl [(1S)-1-({(2S)-2-[5-(6-fluoro-9-{2-[(2S)-1-{(2S)-2-[(methoxycarbonyl)amino]-3-methylbutanoyl}pyrrolidin-2-yl]-1H-imidazol-5-yl}-12-oxo-12H-benzo[b]xanthen-2-yl)-1H-imidazol-2-yl]pyrrolidin-1-yl}carbonyl)-2-methylpropyl]carbamate] | ≥ 1 nM | ≥ 100 nM | 1 nM | ≥ 1 nM | ≥ 100 nM | – | – | – | – | – |
| COC(=O)N[C@H](C(=O)N1CCC[C@H]1c1ncc(-c2ccc3c(c2)Oc2ccc4cc(-c5cnc([C@@H]6CCCN6C(=O)[C@@H](NC(=O)OC)C(C)C)[nH]5)ccc4c2C3C)[nH]1)C(C)C (single isomer, unassigned) [Compound 2] | – | 10.6 nM | – | 1.38 nM | – | 0.0046 nM | – | 0.0036 nM | – | 37.1 nM |
| COC(=O)N[C@H](C(=O)N1C[C@H](F)C[C@H]1c1ncc(-c2ccc3c(ccc4oc5ccc(-c6cnc([C@@H]7C[C@@H](F)CN7C(=O)[C@@H](NC(=O)OC)C(C)C)[nH]6)cc5c(=O)c43)c2)[nH]1)C(C)C [Compound 27, methyl [(1S)-1-({(2S,4R)-4-fluoro-2-[5-(10-{2-[(2S,4R)-4-fluoro-1-{(2S)-2-[(methoxycarbonyl)amino]-3-methylbutanoyl}pyrrolidin-2-yl]-1H-imidazol-5-yl}-12-oxo-12H-benzo[a]xanthen-3-yl)-1H-imidazol-2-yl]pyrrolidin-1-yl}carbonyl)-2-methylpropyl]carbamate] | ≥ 1 nM | 96.6 nM | 0.591 nM | ≥ 1 nM | ≥ 100 nM | – | – | – | – | – |
| COC(=O)N[C@H](C(=O)N1C[C@H](F)C[C@H]1c1ncc(-c2ccc3c(F)c4oc5ccc(-c6cnc([C@@H]7C[C@@H](F)CN7C(=O)[C@@H](NC(=O)OC)C(C)C)[nH]6)cc5c(=O)c4cc3c2)[nH]1)C(C)C [Compound 29, methyl [(1S)-1-({(2S,4R)-4-fluoro-2-[5-(6-fluoro-9-{2-[(2S,4R)-4-fluoro-1-{(2S)-2-[(methoxycarbonyl)amino]-3-methylbutanoyl}pyrrolidin-2-yl]-1H-imidazol-5-yl}-12-oxo-12H-benzo[b]xanthen-2-yl)-1H-imidazol-2-yl]pyrrolidin-1-yl}carbonyl)-2-methylpropyl]carbamate] | ≥ 1 nM | ≥ 100 nM | 1 nM | ≥ 1 nM | ≥ 100 nM | – | – | – | – | – |

From patent US10787441B2, “Hepatitis C virus inhibitors” (priority 2016, dated 2020)
